From PubChem BioAssay AID1259407 (Chemical Carcinogenesis Research Information System (CCRIS), 2018) come the findings set out here.

The source made the active and inactive calls. No rule for the calls is given here.

The test system of this series is CCRIS mutagenicity, Ames/micronucleus/aberration tests. Put plainly: CCRIS mutagenicity studies.
[1] abbreviates: Test System: AMES SALMONELLA TYPHIMURIUM, Strain/Indicator: TA98, Metabolic Activation: NONE, Method: STANDARD PLATE.
Where [2] appears, read: Test System: AMES SALMONELLA TYPHIMURIUM, Strain/Indicator: TA100, Metabolic Activation: NONE, Method: STANDARD PLATE.
[3] abbreviates: Test System: AMES SALMONELLA TYPHIMURIUM, Strain/Indicator: TA100, Metabolic Activation: RAT, LIVER, S-9, AROCLOR 1254, Method: STANDARD PLATE.

With `O=c1ccc(=O)c2c(=O)c(Cl)c(Cl)c(=O)c1=2`, the mutagenic call by setting is: (Test System: AMES SALMONELLA TYPHIMURIUM, Strain/Indicator: TA97, Metabolic Activation: NONE, Method: PREINCUBATION) “inactive; negative”; (Test System: AMES SALMONELLA TYPHIMURIUM, Strain/Indicator: TA97, Metabolic Activation: RAT, LIVER, S-9, PHENOBARBITAL AND 5,6-BENZOFLAVONE, Method: PREINCUBATION) “active; positive”; (Test System: AMES SALMONELLA TYPHIMURIUM, Strain/Indicator: TA98, Metabolic Activation: NONE, Method: PREINCUBATION) “inactive; negative”; (Test System: AMES SALMONELLA TYPHIMURIUM, Strain/Indicator: TA98, Metabolic Activation: RAT, LIVER, S-9, PHENOBARBITAL AND 5,6-BENZOFLAVONE, Method: PREINCUBATION) “inactive; negative”; (Test System: AMES SALMONELLA TYPHIMURIUM, Strain/Indicator: TA100, Metabolic Activation: NONE, Method: PREINCUBATION) “inactive; negative”; (Test System: AMES SALMONELLA TYPHIMURIUM, Strain/Indicator: TA100, Metabolic Activation: RAT, LIVER, S-9, PHENOBARBITAL AND 5,6-BENZOFLAVONE, Method: PREINCUBATION) “inactive; negative”. Moreover, the mutagenic call (Test System: AMES SALMONELLA TYPHIMURIUM, Strain/Indicator: TA102, Metabolic Activation: NONE, Method: PREINCUBATION) is “active; positive”; the mutagenic call (Test System: AMES SALMONELLA TYPHIMURIUM, Strain/Indicator: TA102, Metabolic Activation: RAT, LIVER, S-9, PHENOBARBITAL AND 5,6-BENZOFLAVONE, Method: PREINCUBATION) is “active; positive”; the mutagenic call (Test System: AMES SALMONELLA TYPHIMURIUM, Strain/Indicator: TA104, Metabolic Activation: NONE, Method: PREINCUBATION) is “active; positive”; the mutagenic call (Test System: AMES SALMONELLA TYPHIMURIUM, Strain/Indicator: TA104, Metabolic Activation: RAT, LIVER, S-9, PHENOBARBITAL AND 5,6-BENZOFLAVONE, Method: PREINCUBATION) is “active; positive”; the mutagenic call (Test System: AMES SALMONELLA TYPHIMURIUM, Strain/Indicator: TA1535, Metabolic Activation: NONE, Method: PREINCUBATION) was “inactive; negative”; the mutagenic call (Test System: AMES SALMONELLA TYPHIMURIUM, Strain/Indicator: TA1535, Metabolic Activation: RAT, LIVER, S-9, PHENOBARBITAL AND 5,6-BENZOFLAVONE, Method: PREINCUBATION) was “inactive; negative”. Besides, the mutagenic call reads like this: (Test System: AMES SALMONELLA TYPHIMURIUM, Strain/Indicator: TA1537, Metabolic Activation: NONE, Method: PREINCUBATION) “inactive; negative”; (Test System: AMES SALMONELLA TYPHIMURIUM, Strain/Indicator: TA1537, Metabolic Activation: RAT, LIVER, S-9, PHENOBARBITAL AND 5,6-BENZOFLAVONE, Method: PREINCUBATION) “inactive; negative”; (Test System: AMES SALMONELLA TYPHIMURIUM, Strain/Indicator: TA1538, Metabolic Activation: NONE, Method: PREINCUBATION) “inactive; negative”; (Test System: AMES SALMONELLA TYPHIMURIUM, Strain/Indicator: TA1538, Metabolic Activation: RAT, LIVER, S-9, PHENOBARBITAL AND 5,6-BENZOFLAVONE, Method: PREINCUBATION) “inactive; negative”; (Test System: AMES SALMONELLA TYPHIMURIUM, Strain/Indicator: TA2637, Metabolic Activation: NONE, Method: PREINCUBATION) “active; positive”; (Test System: AMES SALMONELLA TYPHIMURIUM, Strain/Indicator: TA2637, Metabolic Activation: RAT, LIVER, S-9, PHENOBARBITAL AND 5,6-BENZOFLAVONE, Method: PREINCUBATION) “active; positive”.
Consider `COc1cc(CCC(C)=O)ccc1O`, for which the mutagenic call under setting [1] is “inactive; negative”; the mutagenic call (Test System: AMES SALMONELLA TYPHIMURIUM, Strain/Indicator: TA98, Metabolic Activation: RAT, LIVER, S-9, AROCLOR 1254, Method: STANDARD PLATE) was “inactive; negative”; the mutagenic call under setting [2] is “inactive; negative”; the mutagenic call under setting [3] is “inactive; negative”; the mutagenic call (Test System: AMES SALMONELLA TYPHIMURIUM, Strain/Indicator: TA1535, Metabolic Activation: NONE, Method: STANDARD PLATE) is “inactive; negative”; the mutagenic call (Test System: AMES SALMONELLA TYPHIMURIUM, Strain/Indicator: TA1535, Metabolic Activation: RAT, LIVER, S-9, AROCLOR 1254, Method: STANDARD PLATE) is “inactive; negative”. The mutagenic call (Test System: AMES SALMONELLA TYPHIMURIUM, Strain/Indicator: TA1538, Metabolic Activation: NONE, Method: STANDARD PLATE) was “inactive; negative”; the mutagenic call (Test System: AMES SALMONELLA TYPHIMURIUM, Strain/Indicator: TA1538, Metabolic Activation: RAT, LIVER, S-9, AROCLOR 1254, Method: STANDARD PLATE) was “inactive; negative”; the mutagenic call (Test System: E. COLI, Strain/Indicator: CM561 LEXA, Metabolic Activation: NONE, Method: STANDARD PLATE) was “inactive; negative”; the mutagenic call (Test System: E. COLI, Strain/Indicator: CM611 UVRA/LEXA, Metabolic Activation: NONE, Method: STANDARD PLATE) is “inactive; negative”; the mutagenic call (Test System: E. COLI, Strain/Indicator: WP2 UVRA, Metabolic Activation: NONE, Method: STANDARD PLATE) was “inactive; negative”.
With `Fc1ccc2cc3c(cc2c1)-c1cccc2cccc-3c12`, under setting [3], the mutagenic call is “active; positive”.
For `CN(C)CCNC(=O)c1cccc2[nH]c(-c3ccccc3)nc12`, the mutagenic call (Test System: AMES SALMONELLA TYPHIMURIUM, Strain/Indicator: TA1537, Metabolic Activation: NONE, Method: STANDARD PLATE) is “active; positive”.
On to `N=C(N)c1ccc(-c2cc3ccc(C(=N)N)cc3[nH]2)cc1`, for which the mutagenic call reads like this: under setting [1], “inactive; negative”; (Test System: AMES SALMONELLA TYPHIMURIUM, Strain/Indicator: TA98, Metabolic Activation: RAT, LIVER, S-9, PHENOBARBITAL, Method: STANDARD PLATE) “inactive; negative”; under setting [2], “inactive; negative”; (Test System: AMES SALMONELLA TYPHIMURIUM, Strain/Indicator: TA100, Metabolic Activation: RAT, LIVER, S-9, PHENOBARBITAL, Method: STANDARD PLATE) “inactive; negative”; (Test System: E. COLI, Strain/Indicator: WP2, Metabolic Activation: NONE, Method: PREINCUBATION) “inactive; negative”.
